Consider four compounds from US9796659B2, “Derivatives of polyhydroxy compounds” (RATIOPHARM GMBH, priority 2014, dated 2017).

The structures appear in SMILES notation. Structures can show the parent of a compound that is named as a salt.

The test system of one data set is Caco-2 monolayers. In words: in vitro. The note with it: for permeability category compared to the reference molecules: Caco-2. The procedure: (§1) The membrane permeability was investigated in Caco-2 monolayers. DMF was investigated in a separate experiment for comparison.
(§2) […] The test concentration in the apical medium was 250 μM. […] Furthermore, a significant metabolism or degradation of the test compound was expected and therefore the parent compound as well as MMF was determined in the acceptor compartment (basolateral medium). Sampling time points were 15, 45 and 90 min.

A short description of another data set: in vitro. The settings on record: human; for recovery at 90 min, 250 μM / recovery at 90 min: Caco-2, Recovery [%] mean ± s.d. The procedure:
as §1, §2

The test system of data set [1] is MOG35-55-induced experimental autoimmune encephalomyelitis (EAE). In words: MOG35-55-induced experimental autoimmune encephalomyelitis (EAE) in the mouse. In kind it is in vivo, male C57BL/6 mice. The note with it: prophylactic treatment from day 1; observations day 1 to 13; dose formulation 11.54 mM, 10 ml/kg. The procedure:
The pharmacological efficacy was investigated in experimental autoimmune encephalomyelitis (EAE) in the mouse.
The experiments were performed as follows: male C57BL/6 mice, 12 weeks old, 10 animals per treatment group, were used. On day 1, animals were immunized by sub-cutaneous injection of MOG35-55, which was mixed in complete Freund's adjuvants. On the same day as well as on day 3 the animals received a sub-cutaneous injection of Pertussis-toxin.
Assessment and comparison of the efficacy of compounds of the invention and DMF (reference) in MOG35-55-induced experimental autoimmune encephalomyelitis (EAE) in C57BL/6 mice. • Test system: male C57BL/6 mice, 12 weeks old; 10 animals per treatment group; • Induction of EAE: Day 1—subcutaneous injection of MOG35-55, suspended in complete Freund's adjuvants and intraperitoneal injection of pertussis toxin. • Day 3—intraperitoneal injection of pertussis toxin. • Treatment: Dimethylfumarate and test substances or vehicle only were administered via oral and intravenous route. For oral administration, test substances were dissolved or suspended in 0.5% hydroxyethylcellulose (dissolved in 50 mM potassium dihydrogenphosphate, pH 5.0). […]

Data set [2] is described as follows: In vivo pharmacokinetics of MMF after p.o. administration. More on the design: species or system female NMRI mice. The settings on record: female, NMRI, mouse, po, 49.4 mg/kg. The procedure:
The pharmacokinetics of MMF after administration of Example 7 and DMF for comparison was investigated in female NMRI mice (3 animals per group). The test compound was dissolved in DMSO/PEG300 (20/80) and administered p.o. (gavage) at a dose volume of 10 ml/kg. DMF was given at a dose of 45 mg/kg. The test compound was dosed at a MMF-equivalent dose, i.e. 49.4 mg/kg. Blood samples were taken at 0.25, 0.5, 1.0, 2.0, 4.0, 6.0 and 8.0 h after drug administration.
Pharmacokinetic parameters, derived by non-compartmental analysis for test compound

Setting [3] is: Caco-2, Papp × 10^−6 [cm/sec] mean ± s.d.

Consider `COC(=O)/C=C/C(=O)OC` [DMF, Dimethyl fumarate], for which the “permeability category compared to the reference molecules” value in the data set with Caco-2 monolayers is “moderate permeability”. Besides, the Papp A→B at 90 min, 250 μM in “in vitro” (setting [3]) was 1.8 ± 0.2 ×10⁻⁶ cm/s. For the same compound, the recovery at 90 min, 250 μM in the data set “in vitro” is 11.6%. In data set [1], the body weight result is on record as “remained stable” and the “clinical symptoms (clinical score, grade 0-10)” value is “protected from the development of clinical symptoms”.

Turning to `CC[C@H]1OC(=O)[C@H](C)[C@@H](O[C@H]2C[C@@](C)(OC)[C@@H](O)[C@H](C)O2)[C@H](C)[C@@H](O[C@@H]2O[C@H](C)C[C@H](N(C)C)[C@H]2O)[C@](C)(O)C[C@@H](C)C(=O)[C@H](C)[C@@H](O)[C@]1(C)O` [Erythromycin, erythromycin], in the data set with Caco-2 monolayers (human, Caco-2, 90 min), the “Efflux ratio (b-a/a-b)” value was 100.8, the “Papp × 10^−6 [cm/sec] mean ± s.d.” value is 11.5 ± 0.5 10^−6 cm/sec and the “Recovery [%] mean ± s.d.” value was 89.1 ± 8.5%. Further, in the data set on Caco-2 monolayers (human, Caco-2, 90 min, 250 μM), the “Papp × 10^−6 [cm/sec] mean ± s.d.” value is recorded as 0.1 ± 0.2 10^−6 cm/sec and the “Recovery [%] mean ± s.d.” value is 91.0 ± 1.9%. Further, the efflux ratio at 90 min in the data set “in vitro” (Caco-2, Efflux ratio (b-a/a-b)) amounted to 55.9. For the same compound, in the data set “in vitro” (setting [3]), the Papp A→B at 90 min, 250 μM worked out at 0.2 ± 0.02 ×10⁻⁶ cm/s and the Papp B→A at 90 min stood at 12.3 ± 0.4 ×10⁻⁶ cm/s. In “in vitro”, this compound came in with a recovery at 90 min of 99.9 ± 2.4% and a recovery at 90 min, 250 μM of 108 ± 2.2%.

In the case of `COC(=O)/C=C/C(=O)OCC(O)COC(=O)/C=C/C(=O)OC` [Example 7, (E)-But-2-enedioic acid 2-hydroxy-3-((E)-3-methoxycarbonyl-acryloyloxy)-propyl ester methyl ester], the “permeability category compared to the reference molecules” value with Caco-2 monolayers is on record as “moderate permeability”. Besides, the Papp A→B at 90 min, 250 μM in “in vitro” (setting [3]) came out at 2.5 ± 0.2 ×10⁻⁶ cm/s. In “in vitro”, this compound displayed a recovery at 90 min, 250 μM of 18.3%. Moreover, the “Tmax of MMF” value in data set [2] amounted to 15 min.

For the compound `C[C@]12CC[C@H]3[C@@H](CCC4=CC(=O)CC[C@@]43C)[C@@H]1CC[C@@H]2O` [Testosterone, testosterone], the results for the “Recovery [%] mean ± s.d.” value in the data set with Caco-2 monolayers (direction a-b) and in the data set on Caco-2 monolayers (direction b-a) were 62.5 ± 2.1% and 76.1 ± 4.5%, respectively. The recovery at 90 min, 250 μM in “in vitro” (direction a-b) was 67.3 ± 1.2%. The compound further gave a recovery at 90 min in the data set “in vitro” (direction b-a) of 94.9 ± 0.9%.
